Reference: patent publication US12138334B2, “Antidandruff composition” (Conopco, Inc., priority 2019, dated 2024)
Structures can show the parent of a compound that is named as a salt.

Key:
Malassezia furfur 14521 = assay: Antifungal activity on M. furfur (resazurin viability, MIC and ΣFIC); assay type: cell-based; conditions: M. furfur 14521, YPD broth, 30° C., 72 hours, resazurin colour
Method: The samples as given in Table 1 were subjected to their anti fungal efficacy on M. furfur as described hereinafter.
The test organism used in the assay is Malassezia furfur 14521. The M. furfur were revived from glycerol stock in YPD agar plates (yeast extract peptone dextrose media) containing 1% corn oil. The composition of YPD is yeast extract:10 g/litre, dextrose 20 g/litre, Peptone 20 g/litre and agarose 0.15%. The plates were incubated at 30° C. for 72 hours for forming fungal colonies. A suspension culture of M. furfur was made using the colonies from plates in YPD broth. The optical density of the suspension culture was adjusted to 0.6 using spectrophotometer. This suspension was diluted in the ratio of 1:10 using YPD broth and 100 μl of this culture was added into each well of 96 well test plate. A stock solution of 40× strength of piroctone olamine was prepared for each of the concentrations tested eg for 0.0.001% test concentration of piroctone olamine a stock of 0.04% was prepared in DMSO (dimethyl sulphoxide). 5 μl of piroctone olamine was added to 100 μl of M. furfur culture. A stock solution of 4× strength of itaconic acid or sodium benzoate was prepared for each of the concentrations tested e.g. for 0.0.001% test concentration of itaconic acid or sodium benzote a stock of 0.004% was prepared in YPD broth. 50 μl of itaconic acid or sodium benzoate was added to 100 μl of M. furfur culture. In wells containing only one test ingredient, (itaconic acid or sodium benzoate only) 50 μl of test ingredient was added to 100 μl of fungal culture and then made up the volume to 200 μl with YPD broth. In wells containing only piroctone olamine 5 μl of piroctone olamine was added to 100 μl of fungal culture and then made up the volume to 200 μl with YPD broth. […] The anti-fungal efficacy of the ingredient or combination of ingredients is calculated based on the colour development. […]
The combinations of test ingredients with synergistic anti-fungal benefits were evaluated using ΣFIC method. The ΣFIC of the combinations were calculated using the following formula: […]

[1] = cited from earlier work

SMILES	Minimum inhibitory concentration (MIC) (Malassezia furfur 14521)	solubility in 10% ethanol in water ([1]; 10% ethanol in water)	solubility in solution containing surfactants in water or in 1%-10% ethanol ([1]; solution containing surfactants in water or in 1%-10% ethanol)
C=C(CC(=O)OC)C(=O)OC [Dimethyl itaconate]	0.5 wt %		
Cc1cc(CC(C)CC(C)(C)C)n(O)c(=O)c1 (centres unmarked) [Piroctone olamine, 1-Hydroxy-4-methyl-6-(2,4,4-trimethylpentyl)-2-(1H)pyridinone,2-aminoethanol salt]	0.002 wt %	soluble	soluble
O=C([O-])c1ccccc1.[Na+] [Sodium benzoate]	0.5 wt %		
